Measurements from patent US8034941B2, “Imidazopyridazinone and imidazopyridone derivatives, the preparation thereof and their use as pharmaceutical compositions” (Boehringer Ingelheim International GmbH, priority 2003, dated 2011).

Each molecule was assayed on rats (assay: Tolerability after oral administration to rats (behaviour)). Conditions: 10 mg/kg.
Type: in vivo

Row | Structure (SMILES) | changes in the animals' behaviour
1 | CC#CCn1c(N2CCCC(N)C2)nc2cnn(CC3=Nc4ccccc4Oc4ccccc43)c(=O)c21 (centres unmarked) [Example 1, 2-(3-amino-piperidin-1-yl)-3-(2-butyn-1-yl)-5-[(dibenzo[b,f][1,4]oxazepin-11-yl)methyl]-3,5-dihydro-imidazo[4,5-d]pyridazin-4-one] | no changes in the animals' behaviour could be detected

What follows are molecules tested against T1, DPP-IV (Homo sapiens, UniProt P27487) (assay: DPP-IV assay with Caco-2 cell extract as DPP IV source, AFC substrate, fluorescence). Conditions: extract of human colon carcinoma cell line Caco-2; substrate 100 μM; 60 minutes at ambient temperature; read-out: DPP IV inhibition IC50.
T1 construct: an extract of human colon carcinoma cell line Caco-2 is used as the DPP IV source; endogenous in cells; host or cells: Caco-2 (human colon carcinoma), differentiated to induce DPP-IV expression; Nonidet-P40 solubilised extract
Type: biochemical
Description: The cell extract was obtained from cells solubilised in a buffer (10 mM Tris HCl, 0.15 M NaCl, 0.04 t.i.u. aprotinin, 0.5% Nonidet-P40, pH 8.0) by centrifuging at 35,000 g for 30 minutes at 4° C. (to remove cell debris).
The DPP-IV assay was carried out as follows:
50 μl substrate solution (AFC; AFC is amido-4-trifluoromethylcoumarin), final concentration 100 μM, were placed in black microtitre plates. 20 μl of assay buffer (final concentrations 50 mM Tris HCl pH 7.8, 50 mM NaCl, 1% DMSO) was pipetted in. The reaction was started by adding 30 μl of solubilised Caco-2 protein (final concentration 0.14 μg of protein per well). The test substances to be investigated were typically added prediluted in 20 μl, and the volume of assay buffer was then reduced accordingly. The reaction was carried out at ambient temperature, incubating for 60 minutes. […] Blank readings (corresponding to 0% activity) were obtained in mixtures without any Caco-2 protein (volume replaced by assay buffer), control values (corresponding to 100% activity) were obtained in mixtures with no substance added.

T1 sequence (P27487 whole entry): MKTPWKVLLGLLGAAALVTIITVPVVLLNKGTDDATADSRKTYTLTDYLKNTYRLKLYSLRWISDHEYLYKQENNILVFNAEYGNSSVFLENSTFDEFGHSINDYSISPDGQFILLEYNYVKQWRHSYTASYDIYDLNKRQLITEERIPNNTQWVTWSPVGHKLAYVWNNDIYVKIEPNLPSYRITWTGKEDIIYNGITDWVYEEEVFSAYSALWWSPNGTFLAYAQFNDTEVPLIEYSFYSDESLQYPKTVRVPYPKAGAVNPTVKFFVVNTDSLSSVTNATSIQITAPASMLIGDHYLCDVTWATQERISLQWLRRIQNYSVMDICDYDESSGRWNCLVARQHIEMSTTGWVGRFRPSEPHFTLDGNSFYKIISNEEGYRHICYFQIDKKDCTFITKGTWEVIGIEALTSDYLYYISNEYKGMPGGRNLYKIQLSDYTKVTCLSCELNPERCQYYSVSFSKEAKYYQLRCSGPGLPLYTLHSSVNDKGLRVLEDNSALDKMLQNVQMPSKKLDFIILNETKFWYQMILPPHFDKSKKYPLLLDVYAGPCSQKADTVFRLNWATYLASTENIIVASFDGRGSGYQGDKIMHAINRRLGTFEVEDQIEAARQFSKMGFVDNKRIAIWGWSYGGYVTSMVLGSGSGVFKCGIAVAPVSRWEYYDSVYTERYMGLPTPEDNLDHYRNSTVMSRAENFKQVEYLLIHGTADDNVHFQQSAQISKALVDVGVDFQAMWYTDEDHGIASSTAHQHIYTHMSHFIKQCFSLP

Row | Structure (SMILES) | IC50 [nM]
2 | CC#CCn1c(N2CCCC(N)C2)nc2cnn(Cc3nc4ccccc4c4ccccc34)c(=O)c21 (centres unmarked) [1(1), 2-(3-amino-piperidin-1-yl)-3-(2-butyn-1-yl)-5-[(phenanthridin-6-yl)methyl]-3,5-dihydro-imidazo[4,5-d]pyridazin-4-one] | 17
3 | CC#CCn1c(N2CCCC(N)C2)nc2cnn(Cc3cc4ccccc4c4ccccc34)c(=O)c21 (centres unmarked) [1(2), 2-(3-amino-piperidin-1-yl)-3-(2-butyn-1-yl)-5-[(phenanthren-9-yl)methyl]-3,5-dihydro-imidazo[4,5-d]pyridazin-4-one] | 58
4 | CC#CCn1c(N2CCC[C@@H](N)C2)nc2c(C)nn(Cc3nc4ccccc4c4ccccc34)c(=O)c21 [1(3), 2-((R)-3-amino-piperidin-1-yl)-3-(2-butyn-1-yl)-5-[(phenanthridin-6-yl)methyl]-7-methyl-3,5-dihydro-imidazo[4,5-d]pyridazin-4-one x trifluoroacetic acid] | 8
5 | CC#CCn1c(N2CCC[C@@H](N)C2)nc2c(C)nn(CC3=Nc4ccccc4Oc4ccccc43)c(=O)c21 [1(4), 2-((R)-3-amino-piperidin-1-yl)-3-(2-butyn-1-yl)-5-[(dibenzo[b,f][1,4]oxazepin-11-yl)methyl]-7-methyl-3,5-dihydro-imidazo[4,5-d]pyridazin-4-one] | 9
6 | CC#CCn1c(N2CCC[C@@H](N)C2)nc2cnn(Cc3nc4ccc5ccccc5c4o3)c(=O)c21 [1(7), 2-((R)-3-amino-piperidin-1-yl)-3-(2-butyn-1-yl)-5-[(naphtho[2,1-d]oxazol-2-yl)methyl]-3,5-dihydro-imidazo[4,5-d]pyridazin-4-one] | 3
7 | CC#CCn1c(N2CCC[C@@H](N)C2)nc2cnn(Cc3nc4c(ccc5ccccc54)o3)c(=O)c21 [1(8), 2-((R)-3-amino-piperidin-1-yl)-3-(2-butyn-1-yl)-5-[(naphtho[1,2-d]oxazol-2-yl)methyl]-3,5-dihydro-imidazo[4,5-d]pyridazin-4-one] | 7
8 | CC#CCn1c(N2CCC[C@@H](N)C2)nc2cnn(Cc3nc4ccccc4c(=O)[nH]3)c(=O)c21 [1(9), 2-((R)-3-amino-piperidin-1-yl)-3-(2-butyn-1-yl)-5-[(4-oxo-3,4-dihydro-quinazolin-2-yl)methyl]-3,5-dihydro-imidazo[4,5-d]pyridazin-4-one] | 3
